Drawing on US7045532B2 (Millennium Pharmaceuticals, Inc., priority 1999, dated 2006), this text covers Ki for 17 compounds.

Read-outs that look alike come from different tables or passages of the source. Bounds are passed on as bounds.

Experiment [1] concerns the target T1, ACE-2 (Homo sapiens, UniProt Q9BYF1).
T1 construct: a stop codon inserted after the serine immediately preceding the transmembrane domain; made in house; host or cells: CHO K1 cells (transient transfection, purified from conditioned medium)
Put plainly: ACE-2 Competitive Substrate Assay (ACS Assay). In kind it is biochemical.

In experiment [2] the target is ACE-2 (Rattus norvegicus, UniProt Q5EGZ1). Put plainly: ACE-2 Competitive Substrate Assay, rat ACE-2. In kind it is biochemical. Particulars: Ki class, compounds tested in 5% DMSO.
The target in a further experiment is T2, ACE (Sigma, A2580) (Sus scrofa, UniProt F1RRW5).
T2 construct: ACE from porcine kidney; purchased Sigma A2580; host or cells: porcine kidney
T2 sequence (F1RRW5 34-1309): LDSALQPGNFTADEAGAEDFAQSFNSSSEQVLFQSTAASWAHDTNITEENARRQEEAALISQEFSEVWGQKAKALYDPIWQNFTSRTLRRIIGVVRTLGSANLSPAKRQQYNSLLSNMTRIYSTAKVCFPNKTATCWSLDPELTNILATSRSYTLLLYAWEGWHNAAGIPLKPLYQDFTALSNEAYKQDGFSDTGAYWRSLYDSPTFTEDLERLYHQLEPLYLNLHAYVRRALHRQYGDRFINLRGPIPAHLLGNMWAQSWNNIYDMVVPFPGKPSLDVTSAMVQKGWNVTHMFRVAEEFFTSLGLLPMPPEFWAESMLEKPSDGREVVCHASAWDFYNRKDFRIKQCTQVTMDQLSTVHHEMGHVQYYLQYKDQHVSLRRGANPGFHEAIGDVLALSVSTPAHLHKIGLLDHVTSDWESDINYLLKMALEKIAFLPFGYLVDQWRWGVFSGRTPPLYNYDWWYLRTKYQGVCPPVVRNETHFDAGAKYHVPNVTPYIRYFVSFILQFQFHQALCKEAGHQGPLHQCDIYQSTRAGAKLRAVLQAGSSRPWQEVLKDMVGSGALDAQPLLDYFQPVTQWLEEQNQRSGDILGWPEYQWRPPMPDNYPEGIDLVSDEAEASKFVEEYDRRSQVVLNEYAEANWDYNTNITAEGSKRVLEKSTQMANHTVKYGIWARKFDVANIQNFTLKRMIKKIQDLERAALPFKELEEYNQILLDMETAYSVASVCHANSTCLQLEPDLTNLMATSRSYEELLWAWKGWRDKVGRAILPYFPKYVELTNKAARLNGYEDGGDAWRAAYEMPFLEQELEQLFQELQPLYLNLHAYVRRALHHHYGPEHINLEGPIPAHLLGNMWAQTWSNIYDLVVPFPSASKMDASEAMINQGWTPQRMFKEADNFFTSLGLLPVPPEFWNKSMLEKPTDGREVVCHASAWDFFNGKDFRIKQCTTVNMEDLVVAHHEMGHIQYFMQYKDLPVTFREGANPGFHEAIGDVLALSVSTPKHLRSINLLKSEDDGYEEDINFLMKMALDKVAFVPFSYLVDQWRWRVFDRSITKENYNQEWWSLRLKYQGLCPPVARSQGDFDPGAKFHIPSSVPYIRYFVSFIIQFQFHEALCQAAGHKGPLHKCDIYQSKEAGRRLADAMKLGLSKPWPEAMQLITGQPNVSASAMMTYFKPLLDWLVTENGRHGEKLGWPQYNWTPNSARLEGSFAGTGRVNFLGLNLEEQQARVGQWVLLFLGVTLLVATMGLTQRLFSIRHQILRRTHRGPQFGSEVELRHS
Put plainly: ACE enzymatic activity assay. In kind it is biochemical, porcine. To be noted: Ki class, compounds tested in 5% DMSO. The method, boiled down:
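Fluorogenic substrate cleavage by 1 nM ACE, read at 320/405 nm after EDTA stop at ~30 min. Reactions at 25 °C, pH 7.5, in HEPES/NaCl/Brij-35 buffer; compounds tested at 12 concentrations in 5% DMSO.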

Another experiment addresses T3, Carboxypeptidase A (Bos taurus, UniProt P00730).
T3 sequence (P00730 111-419): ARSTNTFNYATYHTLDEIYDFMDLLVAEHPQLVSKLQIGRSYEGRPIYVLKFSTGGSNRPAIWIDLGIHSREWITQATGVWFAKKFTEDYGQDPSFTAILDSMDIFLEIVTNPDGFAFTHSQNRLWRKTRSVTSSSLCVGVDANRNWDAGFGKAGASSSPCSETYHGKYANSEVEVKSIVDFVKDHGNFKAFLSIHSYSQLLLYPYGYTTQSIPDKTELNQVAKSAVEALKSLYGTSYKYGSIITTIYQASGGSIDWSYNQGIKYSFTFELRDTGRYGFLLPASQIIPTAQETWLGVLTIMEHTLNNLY
Put plainly: Carboxypeptidase A activity assay. The class given is biochemical. Particulars: Ki class, compounds tested in 5% DMSO. The method, boiled down: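 Ki obtained by correcting apparent Ki for substrate, Ki=Kiapp/(1+[S]/Km), from 12-concentration series. Enzyme activity read by absorbance at 328 nm with 5% DMSO present, EDTA stop.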

Where [3] appears, read: Ki class, compounds tested in 5% DMSO, 12 concentrations, read-out: Human ACE-2 Activity.
The mark [4] stands for this setting: Ki class, compounds tested in 5% DMSO, 12 compound concentrations, Ki=Kiapp/(1+[S]/Km), read-out: Human ACE-2 Activity.
Where [5] appears, read: Table 3, very good ACE-2 inhibiting compounds, species not given, read-out: ACE-2 Activity, Ki.

T1 sequence (Q9BYF1 18-740 limits assumed): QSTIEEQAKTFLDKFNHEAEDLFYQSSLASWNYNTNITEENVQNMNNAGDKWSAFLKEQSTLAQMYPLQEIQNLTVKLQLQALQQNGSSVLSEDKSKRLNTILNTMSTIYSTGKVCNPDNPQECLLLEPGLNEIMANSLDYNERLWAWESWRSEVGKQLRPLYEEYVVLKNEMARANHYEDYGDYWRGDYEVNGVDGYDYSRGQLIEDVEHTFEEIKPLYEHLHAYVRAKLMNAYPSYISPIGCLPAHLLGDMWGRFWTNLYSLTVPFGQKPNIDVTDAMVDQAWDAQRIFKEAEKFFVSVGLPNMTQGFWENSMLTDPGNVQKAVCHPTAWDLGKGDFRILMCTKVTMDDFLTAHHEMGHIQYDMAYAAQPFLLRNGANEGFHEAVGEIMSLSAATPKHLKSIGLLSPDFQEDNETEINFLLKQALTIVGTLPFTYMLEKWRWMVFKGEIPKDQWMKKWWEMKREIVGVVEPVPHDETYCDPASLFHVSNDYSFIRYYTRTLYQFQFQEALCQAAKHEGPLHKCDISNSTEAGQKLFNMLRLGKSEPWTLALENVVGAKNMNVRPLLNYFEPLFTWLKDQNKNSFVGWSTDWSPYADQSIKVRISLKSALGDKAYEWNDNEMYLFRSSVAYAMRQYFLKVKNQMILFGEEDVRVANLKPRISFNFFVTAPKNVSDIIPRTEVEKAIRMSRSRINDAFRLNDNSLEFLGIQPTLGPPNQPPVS
ACE-2 (Rattus norvegicus, UniProt Q5EGZ1), sequence (Q5EGZ1 18-805): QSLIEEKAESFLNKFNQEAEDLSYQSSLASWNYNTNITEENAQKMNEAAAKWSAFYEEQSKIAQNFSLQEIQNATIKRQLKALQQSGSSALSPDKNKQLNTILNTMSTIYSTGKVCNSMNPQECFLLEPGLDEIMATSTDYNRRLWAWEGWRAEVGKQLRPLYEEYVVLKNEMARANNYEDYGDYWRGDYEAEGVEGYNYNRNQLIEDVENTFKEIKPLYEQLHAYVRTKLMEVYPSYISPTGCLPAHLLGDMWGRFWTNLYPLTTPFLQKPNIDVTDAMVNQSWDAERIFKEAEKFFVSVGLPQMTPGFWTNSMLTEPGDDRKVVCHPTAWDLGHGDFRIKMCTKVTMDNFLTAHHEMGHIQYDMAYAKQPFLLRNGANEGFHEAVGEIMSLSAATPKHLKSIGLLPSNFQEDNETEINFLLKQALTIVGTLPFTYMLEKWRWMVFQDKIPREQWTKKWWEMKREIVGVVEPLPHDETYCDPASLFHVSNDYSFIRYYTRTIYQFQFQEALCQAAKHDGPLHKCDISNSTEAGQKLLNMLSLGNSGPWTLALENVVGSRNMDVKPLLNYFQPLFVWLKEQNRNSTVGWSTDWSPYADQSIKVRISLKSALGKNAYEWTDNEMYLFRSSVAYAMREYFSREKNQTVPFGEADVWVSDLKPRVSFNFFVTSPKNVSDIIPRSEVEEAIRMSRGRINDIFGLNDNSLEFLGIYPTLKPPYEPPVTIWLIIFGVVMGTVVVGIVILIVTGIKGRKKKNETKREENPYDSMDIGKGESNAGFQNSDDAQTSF

Turning to `CCC(C)C(NC(Cc1cncn1Cc1ccccc1)C(=O)O)C(=O)O` (single isomer, unassigned) [GC, 2-[2-(3-Benzyl-3H-imidazol-4-yl)-1-carboxy-ethylamino]-3-methyl-pentanoic acid], the Ki was more than 0.5 µM on ACE-2 [1] (setting [3]); 0.1 to 0.5 µM at ACE-2 [2] (12 concentrations); more than 50 µM on ACE (Sigma, A2580) (12 concentrations); 10 to 50 µM at Carboxypeptidase A (12 concentrations).

In the case of `O=C(O)C(Cc1ccccc1)N[C@@H](Cc1cncn1Cc1ccccc1)C(=O)O` (single isomer, unassigned) [GF, 3-(3-Benzyl-3H-imidazol-4-yl)-2-(1-carboxy-2-phenyl-ethylamino)-propionic acid], the Ki was more than 0.5 µM on ACE-2 [1] (setting [3]); 0.1 to 0.5 µM on ACE-2 [2] (12 concentrations); more than 50 µM at ACE (Sigma, A2580) (12 concentrations); less than 10 µM at Carboxypeptidase A (12 concentrations).

Take `CC(C)CC(N[C@@H](Cc1cncn1Cc1cccc2ccccc12)C(=O)O)C(=O)O` (single isomer, unassigned) [GK, 2-[1-Carboxy-2-(3-naphthalen-1-ylmethyl-3Himidazol-4-yl)-ethylamino]4-methyl-pentanoic acid]: the Ki at ACE-2 [1] (setting [3]) is less than 0.1 µM; at ACE-2 [2] (12 concentrations) it was less than 0.1 µM; at ACE (Sigma, A2580) (12 concentrations), more than 50 µM; at Carboxypeptidase A (12 concentrations), 10 to 50 µM.

Consider `CC(C)CC(N[C@@H](Cc1cncn1Cc1ccc(Cl)cc1)C(=O)O)C(=O)O` (single isomer, unassigned) [GM, 2-[1-Carboxy-2-[3-(4-chloro-benzyl)-3H-imidazol-4-yl]-ethylamino]4-methyl-pentanoic acid], for which the Ki on ACE-2 [1] (setting [3]) was less than 0.1 µM; on ACE-2 [2] (12 concentrations), less than 0.1 µM; at ACE (Sigma, A2580) (12 concentrations), more than 50 µM; on Carboxypeptidase A (12 concentrations), 10 to 50 µM.

Regarding `CC(C)CC(N[C@@H](Cc1cncn1Cc1ccc(Cl)c(Cl)c1)C(=O)O)C(=O)O` (single isomer, unassigned) [GW], the Ki on ACE-2 [1] (setting [4]) was less than 0.1 µM; on ACE-2 [2] (12 compound concentrations), less than 0.1 µM; at ACE (Sigma, A2580) (12 compound concentrations), 10 to 50 µM; at Carboxypeptidase A (12 compound concentrations), 10 to 50 µM.

Take `CC(C)CC(N[C@@H](Cc1cncn1Cc1cccc(Cl)c1)C(=O)O)C(=O)O` (single isomer, unassigned) [HC, 2-[1-Carboxy-2-[3-(3-chloro-benzyl)-3H-imidazol-4-yl]-ethylamino)4-methyl-pentanoic acid]: the Ki is less than 0.1 µM at ACE-2 [1] (setting [4]); less than 0.05 µM at ACE-2 [1] (setting [5]); less than 0.1 µM at ACE-2 [2] (12 compound concentrations); 10 to 50 µM at ACE (Sigma, A2580) (12 compound concentrations); 10 to 50 µM on Carboxypeptidase A (12 compound concentrations).

Regarding `Cc1ccc(Cn2cncc2C[C@H](NC(CC(C)C)C(=O)O)C(=O)O)cc1` (single isomer, unassigned) [HG, 2-[1-Carboxy-2-[3-(4-methyl-benzyl)-3H-imidazol-4-yl]-ethylamino)4-methyl-pentanoic acid], the Ki at ACE-2 [1] (setting [4]) is less than 0.1 µM; at ACE-2 [1] (setting [5]), less than 0.05 µM; on ACE-2 [2] (12 compound concentrations), less than 0.1 µM; on ACE (Sigma, A2580) (12 compound concentrations) it was 10 to 50 µM; at Carboxypeptidase A (12 compound concentrations), 10 to 50 µM.

As to `Cc1ccc(Cn2cncc2C[C@H](NC(CC(C)C)C(=O)O)C(=O)O)cc1C` (single isomer, unassigned) [HK, 2-[1-Carboxy-2-[3-(3,4-dimethyl-benzyl)-3H-imidazol-4-yl]-ethylamino)4-methyl-pentanoic acid], the Ki on ACE-2 [1] (setting [4]) is less than 0.1 µM; on ACE-2 [1] (setting [5]) it was less than 0.05 µM; at ACE-2 [2] (12 compound concentrations), less than 0.1 µM; on ACE (Sigma, A2580) (12 compound concentrations), 10 to 50 µM; at Carboxypeptidase A (12 compound concentrations) it was 10 to 50 µM.

For the compound `Cc1cccc(Cn2cncc2C[C@H](NC(CC(C)C)C(=O)O)C(=O)O)c1` (single isomer, unassigned) [HO, 2-[1-Carboxy-2-[3-(3-methyl-benzyl)-3H-imidazol-4-yl]-ethylamino]4-methyl-pentanoic acid], the Ki is less than 0.1 µM on ACE-2 [1] (setting [4]); less than 0.05 µM at ACE-2 [1] (setting [5]); less than 0.1 µM at ACE-2 [2] (12 compound concentrations); 10 to 50 µM on ACE (Sigma, A2580) (12 compound concentrations); 10 to 50 µM on Carboxypeptidase A (12 compound concentrations).

With `Cc1cc(C)cc(Cn2cncc2C[C@H](NC(CC(C)C)C(=O)O)C(=O)O)c1` (single isomer, unassigned) [HQ, 2-[1-Carboxy-2-[3-(3,5-dimethyl-benzyl)-3H-imidazol-4-yl]-ethylamino]4-methyl-pantanoic acid], the Ki at ACE-2 [1] (setting [4]) was less than 0.1 µM; on ACE-2 [1] (setting [5]), less than 0.05 µM; at ACE-2 [2] (12 compound concentrations), less than 0.1 µM; at ACE (Sigma, A2580) (12 compound concentrations), 10 to 50 µM; at Carboxypeptidase A (12 compound concentrations) it was 10 to 50 µM.

Regarding `CC(C)CC(N[C@@H](Cc1cncn1Cc1ccc(OC(F)(F)F)cc1)C(=O)O)C(=O)O` (single isomer, unassigned) [HS, 2-[1-Carboxy-2-[3-(4-trifluoromethoxy-benzyl)-3H-imidazol-4-yl]-ethylamino]-4-methyl-pentanoic acid], the Ki at ACE-2 [1] (setting [4]) was less than 0.1 µM; on ACE-2 [1] (setting [5]), 0.05 to 0.1 µM; on ACE-2 [2] (12 compound concentrations), 0.1 to 0.5 µM; at ACE (Sigma, A2580) (12 compound concentrations), 10 to 50 µM; at Carboxypeptidase A (12 compound concentrations) it was 10 to 50 µM.

As to `CC(C)CC(N[C@@H](Cc1cncn1Cc1ccc(C(C)C)cc1)C(=O)O)C(=O)O` (single isomer, unassigned) [HU, 2-[1-Carboxy-2-[3-(4-isopropyl-benzyl)-3H-imidazol-4-yl]-ethylamino)4-methyl-pentanoic acid], the Ki at ACE-2 [1] (setting [4]) is less than 0.1 µM; on ACE-2 [1] (setting [5]) it was 0.05 to 0.1 µM; on ACE-2 [2] (12 compound concentrations) it was 0.1 to 0.5 µM; at ACE (Sigma, A2580) (12 compound concentrations), less than 10 µM; on Carboxypeptidase A (12 compound concentrations) it was less than 10 µM.

As to `CC(C)C[C@@H](C(=O)O)N(C(=O)c1ccccc1)C(CCc1ccccc1)C(=O)O` (stereo in doubt) [AV, 2-[Benzoyl-(1-carboxy-3-phenyl-propyl)-amino]-4-methyl-pentanoic acid], the Ki at ACE-2 [1] (setting [3]) was more than 0.5 µM; on ACE-2 [2] (12 concentrations), more than 0.5 µM; on ACE (Sigma, A2580) (12 concentrations), more than 50 µM; on Carboxypeptidase A (12 concentrations), 10 to 50 µM.

As for `CCCC(N[C@H](CCc1ccccc1)C(=O)O)C(=O)O` (stereo in doubt) [BA, 2-(1-Carboxy-3-phenyl-propylamino)-pentanoicacid], the Ki on ACE-2 [1] (setting [3]) was more than 0.5 µM; on ACE-2 [2] (12 concentrations), more than 0.5 µM; at ACE (Sigma, A2580) (12 concentrations), more than 50 µM; at Carboxypeptidase A (12 concentrations), more than 50 µM.

On to `CCC(C)C(N[C@H](Cc1c[nH]cn1)C(=O)O)C(=O)O` (stereo in doubt) [BE, 2-[1-Carboxy-2-(1H-imidazol-4-yl)-ethylamino]-3-methyl-pentanoic acid], for which the Ki on ACE-2 [1] (setting [3]) was more than 0.5 µM; on ACE-2 [2] (12 concentrations), more than 0.5 µM; at ACE (Sigma, A2580) (12 concentrations), 10 to 50 µM; on Carboxypeptidase A (12 concentrations) it was more than 50 µM.

In the case of `CC(C)CC(N[C@H](Cc1ccccn1)C(=O)O)C(=O)O` (stereo in doubt) [BZ, 2-(1-Carboxy-2-pyridin-2-yl-ethylamino)-4-methyl-pentanoic acid], the Ki on ACE-2 [1] (setting [3]) was more than 0.5 µM; on ACE-2 [2] (12 concentrations), more than 0.5 µM; at ACE (Sigma, A2580) (12 concentrations), more than 50 µM; on Carboxypeptidase A (12 concentrations), more than 50 µM.

For `CC(C)CC(N[C@H](Cc1cccs1)C(=O)O)C(=O)O` (stereo in doubt) [CP, 2-(1-Carboxy-2-thiophen-2-yl-ethylamino)-4-methyl-pentanoic acid], the Ki at ACE-2 [1] (setting [3]) was more than 0.5 µM; on ACE-2 [2] (12 concentrations), more than 0.5 µM; at ACE (Sigma, A2580) (12 concentrations), more than 50 µM; on Carboxypeptidase A (12 concentrations) it was 10 to 50 µM.
